Results taken from US8507690B2, “Thiazole derivative and use thereof as VAP-1 inhibitor” (R-Tech Ueno, Ltd., priority 2008, dated 2013).
Where a name gives a salt, the structure may show the parent alone.

What was measured:
[1] = target: T1, human VAP-1 enzyme (SSAO) (Homo sapiens, UniProt Q16853); assay: Enzyme activity inhibitory effect on human VAP-1 enzyme (SSAO), radiochemical-enzyme assay with 14C-benzylamine; type: biochemical; details: human VAP-1 (SSAO) cell extract, 14C-benzylamine 1×10^−5 mol/l, 37° C. 2 hours
T1 construct: made in house; cell extract used
T1 sequence (Q16853 1-763): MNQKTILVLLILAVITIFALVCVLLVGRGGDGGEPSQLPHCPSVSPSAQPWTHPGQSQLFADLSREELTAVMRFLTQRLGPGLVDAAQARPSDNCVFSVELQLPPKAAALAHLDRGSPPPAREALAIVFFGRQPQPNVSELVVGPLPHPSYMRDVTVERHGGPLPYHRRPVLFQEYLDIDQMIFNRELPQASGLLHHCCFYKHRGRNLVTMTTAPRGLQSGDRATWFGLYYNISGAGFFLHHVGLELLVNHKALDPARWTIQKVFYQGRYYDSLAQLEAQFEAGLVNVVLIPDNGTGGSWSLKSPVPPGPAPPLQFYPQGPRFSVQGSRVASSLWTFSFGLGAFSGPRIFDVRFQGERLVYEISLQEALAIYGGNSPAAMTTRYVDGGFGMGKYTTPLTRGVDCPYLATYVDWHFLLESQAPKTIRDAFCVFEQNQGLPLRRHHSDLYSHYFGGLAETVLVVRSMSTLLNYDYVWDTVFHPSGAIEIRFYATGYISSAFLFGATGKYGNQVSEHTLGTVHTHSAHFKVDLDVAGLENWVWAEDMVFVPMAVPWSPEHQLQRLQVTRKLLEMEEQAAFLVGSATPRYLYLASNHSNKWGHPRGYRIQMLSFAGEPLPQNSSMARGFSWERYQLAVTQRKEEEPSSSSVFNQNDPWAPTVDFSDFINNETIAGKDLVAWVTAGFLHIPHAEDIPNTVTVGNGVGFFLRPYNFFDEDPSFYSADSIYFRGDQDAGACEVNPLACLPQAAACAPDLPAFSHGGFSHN
Protocol: (§1) The compounds of the present invention obtained in Production Examples were examined for the enzyme activity inhibitory effect on human and rat VAP-1 enzyme (SSAO) by the following method.
(§2) The VAP-1 enzyme (SSAO) activity in both human and rat was measured by a radiochemical-enzyme assay using ^14C-benzylamine as an artificial substrate. Human or rat VAP-1 was cloned from the cDNA library and expressed in a cell. The cell extract was preincubated with a test compound solution (final concentration 1×10^−7-1×10^−11 mol/l) at room temperature for 20 minutes. Then, ^14C-benzylamine (final concentration 1×10^−5 mol/l) was added, and the mixture was incubated at a final volume of 200 μl at 37° C. for 2 hours. The enzyme reaction was stopped by addition of 2 mol/l (200 μl) citric acid. The oxidation product was extracted with 1 ml toluene/ethyl acetate (1:1), and the radioactivity thereof was measured by a liquid scintillation counter.

rat VAP-1 enzyme (SSAO) = target: T2, rat VAP-1 enzyme (SSAO) (Rattus norvegicus, UniProt O08590); assay: Enzyme activity inhibitory effect on rat VAP-1 enzyme (SSAO), radiochemical-enzyme assay with 14C-benzylamine; type: biochemical; details: rat VAP-1 (SSAO) cell extract, 14C-benzylamine 1×10^−5 mol/l, 37° C. 2 hours
T2 construct: made in house; cell extract used
T2 sequence (O08590 1-763): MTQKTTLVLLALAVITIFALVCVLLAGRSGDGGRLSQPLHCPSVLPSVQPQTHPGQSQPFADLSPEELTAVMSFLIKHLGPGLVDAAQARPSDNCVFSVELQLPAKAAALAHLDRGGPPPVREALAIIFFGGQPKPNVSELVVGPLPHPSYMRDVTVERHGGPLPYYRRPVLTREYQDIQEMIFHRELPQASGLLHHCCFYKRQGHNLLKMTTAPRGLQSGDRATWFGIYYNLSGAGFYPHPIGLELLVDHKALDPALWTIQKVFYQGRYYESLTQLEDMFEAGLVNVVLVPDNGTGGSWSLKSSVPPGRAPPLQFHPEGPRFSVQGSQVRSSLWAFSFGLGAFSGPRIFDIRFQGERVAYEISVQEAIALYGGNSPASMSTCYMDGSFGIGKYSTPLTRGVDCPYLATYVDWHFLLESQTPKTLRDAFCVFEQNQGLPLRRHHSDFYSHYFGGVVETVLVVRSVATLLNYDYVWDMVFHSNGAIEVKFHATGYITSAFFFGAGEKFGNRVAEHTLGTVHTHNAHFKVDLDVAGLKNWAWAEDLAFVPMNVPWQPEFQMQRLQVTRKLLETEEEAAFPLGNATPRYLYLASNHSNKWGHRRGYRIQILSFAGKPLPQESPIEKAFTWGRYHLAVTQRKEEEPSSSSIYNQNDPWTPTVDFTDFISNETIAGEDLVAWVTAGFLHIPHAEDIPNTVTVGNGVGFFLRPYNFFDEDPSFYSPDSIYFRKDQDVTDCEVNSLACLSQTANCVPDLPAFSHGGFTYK
Protocol: as §1, §2

Row | SMILES | IC50 [1] | IC50 (rat VAP-1 enzyme (SSAO)) | melting point
1 | CC(=O)Nc1nc(CCc2ccc(OC(=O)NN)cc2)cs1.Cl [Production Example 1, 4-{2-[2-(acetylamino)-1,3-thiazol-4-yl]ethyl}phenyl hydrazinecarboxylate hydrochloride] | 2.5 nM | 0.2 nM | 167 to 169 °C
2 | CC(=O)Nc1nc(C(=O)Oc2ccc(CCNC(=O)NN)cc2)cs1.Cl [Production Example 26, 4-{2-[(hydrazinocarbonyl)amino]ethyl}phenyl 2-(acetylamino)-1,3-thiazole-4-carboxylate hydrochloride] | 13.3 nM | 3.3 nM | 204 to 207 °C
3 | CC(=O)Nc1nc(CCc2ccc(CSC(=O)NN)s2)cs1 (as salt: hydrochloride) [Production Example 36, S-[(5-{2-[2-(acetylamino)-1,3-thiazol-4-yl]ethyl}thiophen-2-yl)methyl]hydrazinecarbothioate hydrochloride] |  |  | 147 to 153 °C
4 | CC(=O)Nc1nc(CCc2cc(C)c(CCCOC(=O)NN)s2)cs1.Cl [Production Example 17, 3-(5-{2-[2-(acetylamino)-1,3-thiazol-4-yl]ethyl}-3-methylthiophen-2-yl)propyl hydrazinecarboxylate hydrochloride] | 68.7 nM | 5 nM | 111 to 115 °C
5 | CC(=O)Nc1nc(COc2ccc(CCOC(=O)NN)cc2)cs1 [Production Example 7, 2-(4-{[2-(acetylamino)-1,3-thiazol-4-yl]methoxy}phenyl)ethyl hydrazinecarboxylate] | 57 nM | 7.1 nM | 177 to 180 °C
6 | CC(=O)Nc1nc(C(=O)Oc2ccc(CCOC(=O)NN)cc2)cs1.Cl [Production Example 8, 4-{2-[(hydrazinocarbonyl)oxy]ethyl}phenyl 2-(acetylamino)-1,3-thiazole-4-carboxylate hydrochloride] | 6.4 nM | 1.7 nM | 179 to 184 °C
7 | CC(=O)Nc1nc(C(=O)Nc2ccc(CNC(=O)NN)cc2)cs1.Cl [Production Example 24] |  |  | 231 to 234 °C
8 | CC(=O)Nc1nc(CCc2ccc(CCOC(=O)NN)s2)cs1 [Production Example 14, 2-(5-{2-[2-(acetylamino)-1,3-thiazol-4-yl]ethyl}thiophen-2-yl)ethyl hydrazinecarboxylate hydrochloride] | 5.1 nM | 5.3 nM | 
9 | CC(=O)Nc1nc(CCc2ccc(COC(=O)NN)s2)cs1 [Production Example 13, {5-[2-(2-acetylamino-1,3-thiazol-4-yl)ethyl]thiophen-2-yl}methyl hydrazinecarboxylate hydrochloride] | 3.4 nM | 0.7 nM | 
10 | CC(=O)Nc1nc(C(=O)Nc2ccc(CNC(=O)NN)cc2)cs1.Cl [Production Example 24, 2-(acetylamino)-N-(4-{[hydrazinocarbonyl)amino]methyl}phenyl)-1,3-thiazole-4-carboxamide hydrochloride] | 7.3 nM | 1 nM | 

Now from value to compound:

Row | IC50 [1] | IC50 (rat VAP-1 enzyme (SSAO)) | melting point | SMILES
11 |  |  | 158 to 162 °C | CC(=O)Nc1nc(CCc2cccc(OC(=O)NN)c2)cs1 (as salt: hydrochloride)
12 | 1.2 nM | 1.1 nM | 204 to 208 °C | CC(=O)Nc1nc(CCc2ccc(COC(=O)NN)cc2F)cs1.Cl [Production Example 5, 4-{2-[2-(acetylamino)-1,3-thiazol-4-yl]ethyl}-3-fluorobenzyl hydrazinecarboxylate hydrochloride]
13 | 11.7 nM | 2.3 nM | 172 to 174 °C | CC(=O)Nc1nc(CCc2ccc(CCOC(=O)NN)cc2)cs1.Cl [Production Example 3, 2-(4-{2-[2-(acetylamino)-1,3-thiazol-4-yl]ethyl}phenyl)ethyl hydrazinecarboxylate hydrochloride]
14 | 23.2 nM | 4.6 nM | 149 to 158 °C | CC(=O)Nc1nc(CCc2ccc(CSC(=O)NN)cc2)cs1.Cl [Production Example 34, S-(4-{2-[2-(acetylamino)-1,3-thiazol-4-yl]ethyl}benzyl) hydrazinecarbothioate hydrochloride]
15 | 0.8 nM | 0.4 nM | 162 to 165 °C | CC(=O)Nc1nc(CCc2ccc(COC(=O)NN)c(F)c2)cs1.Cl [Production Example 4, 4-{2-[2-(acetylamino)-1,3-thiazol-4-yl]ethyl}-2-fluorobenzyl hydrazinecarboxylate hydrochloride]
16 | 44.3 nM | 5.6 nM | 176 to 179 °C | CC(=O)Nc1nc(CCc2cccc(CCNC(=O)NN)c2)cs1.Cl [Production Example 28, N-[2-(3-{2-[2-(acetylamino)-1,3-thiazol-4-yl]ethyl}phenyl)ethyl]hydrazinecarboxamide hydrochloride]
17 | 5.5 nM | 2.2 nM |  | CC(=O)Nc1nc(CCc2ccc(CNC(=O)NN)c(F)c2F)cs1 [Production Example 22, N-(4-{2-[2-(acetylamino)-1,3-thiazol-4-yl]ethyl}-2,3-difluorobenzyl)hydrazinecarboxamide hydrochloride]
18 |  |  | 153 to 156 °C | CC(=O)Nc1nc(CCc2csc(CCCNC(=O)NN)c2)cs1 (as salt: hydrochloride)
19 | 1.3 nM | 0.6 nM |  | CC(=O)Nc1nc(CCc2ccc(COC(=O)NN)c(F)c2F)cs1 [Production Example 6, 4-{2-[2-(acetylamino)-1,3-thiazol-4-yl]ethyl}-2,3-difluorobenzyl hydrazinecarboxylate hydrochloride]
20 | 48.5 nM | 1.5 nM |  | CC(=O)Nc1nc(COc2ccc(CCNC(=O)NN)cc2)cs1 [Production Example 25, N-[2-(4-{[2-(acetylamino)-1,3-thiazol-4-yl]methoxy}phenyl)ethyl]hydrazinecarboxamide trifluoroacetate]
21 | 2.3 nM | 0.6 nM |  | CC(=O)Nc1nc(CCc2ccc(CSC(=O)NN)s2)cs1 [Production Example 36, S-[(5-{2-[2-(acetylamino)-1,3-thiazol-4-yl]ethyl}thiophen-2-yl)methyl]hydrazinecarbothioate hydrochloride]
22 |  |  | 165 to 169 °C | CC(=O)Nc1nc(CCc2ccc(CNC(=O)NN)cc2F)cs1 (as salt: hydrochloride)
23 |  |  | 111 to 115 °C | CC(=O)Nc1nc(CCc2cc(CCCNC(=O)NN)cs2)cs1 (as salt: hydrochloride) [Production Example 32, N-[3-(5-{2-[2-(acetylamino)-1,3-thiazol-4-yl]ethyl}thiophen-3-yl)propyl]hydrazinecarboxamide hydrochloride]
24 | 16.8 nM | 8.4 nM |  | CC(=O)Nc1nc(CNc2ccc(CNC(=O)NN)cc2)cs1 [Production Example 23, N-[4-({[2-(acetylamino)-1,3-thiazol-4-yl]methyl}amino)benzyl]hydrazinecarboxamide dihydrochloride]
